pEC50: −log10 of the molar value. Structures can show the parent of a compound that is named as a salt. Where two headings read alike, the source gives them in different places.
System: EVSA-T (human breast carcinoma)
Assay: Anti-proliferative activity, Alamar Blue assay, EVSA-T
Format: cell-based
Conditions: Homo sapiens, EVSA-T
[1] = 72 h, EVSA-T cells, 72 hours, Alamar Blue, read-out: EVSA-T prolif
[2] = read-out: EC50 in EVSA-T cell line assays

SMILES	pEC50 [1]	pEC50 [2]
C[C@@H]1CN(CC(=O)N2CC(C)(C)c3ncc(Cc4ccc(F)cc4)cc32)[C@@H](CN2CCOCC23CC3)CN1 [Example 10, 1-{6-[(4-Fluorophenyl)methyl]-3,3-dimethyl-1H,2H,3H-pyrrolo[3,2-b]pyridin-1-yl}-2-[(2R,5R)-5-methyl-2-{7-oxa-4-azaspiro[2.5]octan-4-ylmethyl}piperazin-1-yl]ethan-1-one dihydrochloride]	9.38	> 6.00
CC(C)[C@@H]1COCCN1C[C@H]1CN[C@H](C)CN1CC(=O)N1CC(C)(C)c2ncc(Cc3ccc(F)cc3)cc21 [Example 13, 1-{6-[(4-Fluorophenyl)methyl]-3,3-dimethyl-1H,2H,3H-pyrrolo[3,2-b]pyridin-1-yl)-2-[(2R,5R)-5-methyl-2-{[(3R)-3-(propan-2-yl)morpholin-4-yl]methyl}piperazin-1-yl]ethan-1-one dihydrochloride]	8.92	> 6.00
C[C@@H]1CN(CC(=O)N2CC(C)(C)c3ncc(Cc4ccc(F)cc4)cc32)[C@@H](CN2CCC[C@@H](F)C2)CN1 [Example 14, 1-{6-[(4-Fluorophenyl)methyl]-3,3-dimethyl-1H,2H,3H-pyrrolo[3,2-b]pyridin-1-yl}-2-[(2R,5R)-2-{[(3R)-3-fluoropiperidin-1-yl]methyl}-5-methylpiperazin-1-yl]ethan-1-one dihydrochloride]	8.34	> 6.00
C[C@@H]1CN(CC(=O)N2CC(C)(C)c3ncc(Cc4ccc(F)cc4)cc32)[C@@H](CN2C3CCC2COC3)CN1 [Example 17, 1-{6-[(4-Fluorophenyl)methyl]-3,3-dimethyl-1H,2H,3H-pyrrolo[3,2-b]pyridin-1-yl}-2-[(2R,5R)-5-methyl-2-{3-oxa-8-azabicyclo[3.2.1]octan-8-ylmethyl}piperazin-1-yl]ethan-1-one dihydrochloride]	8.42	> 6.00
C[C@@H]1CN(CC(=O)N2CC(C)(C)c3ncc(Cc4ccc(F)cc4)cc32)[C@@H](CN2Cc3cccnc3C2)CN1 [Example 21, 1-{6-[(4-Fluorophenyl)methyl]-3,3-dimethyl-1H,2H,3H-pyrrolo[3,2-b]pyridin-1-yl}-2-[(2R,5R)-5-methyl-2-{5H,6H,7H-pyrrolo[3,4-b]pyridin-6-ylmethyl}piperazin-1-yl]ethan-1-one dihydrochloride]	8.43	> 6.00
C[C@@H]1CN(CC(=O)N2CC(C)(C)c3ncc(Cc4ccc(F)cc4)cc32)[C@@H](CN2CCC[C@H]2CF)CN1 [Example 30, 2-[(2R,5R)-2-{[(2S)-2-(Fluoromethyl)pyrrolidin-1-yl]methyl}-5-methylpiperazin-1-yl]-1-{6-[(4-fluorophenyl)methyl]-3,3-dimethyl-1H,2H,3H-pyrrolo[3,2-b]pyridin-1-yl}ethan-1-one dihydrochloride]	8.92	> 6.00
C[C@@H]1CN(CC(=O)N2CC(C)(C)c3ncc(Cc4ccc(F)cc4)cc32)[C@@H](CN2CCOC(C#N)C2)CN1 (stereo partly drawn) [Example 31, 4-{[(2R,5R)-1-(2-{6-[(4-Fluorophenyl)methyl]-3,3-dimethyl-1H,2H,3H-pyrrolo[3,2-b]pyridin-1-yl}-2-oxoethyl)-5-methylpiperazin-2-yl]methyl}morpholine-2-carbonitrile]	8.96	> 6.00
C[C@@H]1CN(CC(=O)N2CC(C)(C)c3ncc(Cc4ccc(F)cc4)cc32)[C@@H](CN2CCOCC2(C)CO)CN1 (stereo partly drawn) [Example 47, 1-{6-[(4-Fluorophenyl)methyl]-3,3-dimethyl-1H,2H,3H-pyrrolo[3,2-b]pyridin-1-yl}-2-[(2R,5R)-2-{[3-(hydroxymethyl)-3-methylmorpholin-4-yl]methyl}-5-methylpiperazin-1-yl]ethan-1-one, dihydrochloride]	9.05	> 6.00
C[C@@H]1CN(CC(=O)N2CC(C)(C)c3cnc(Cc4ccc(F)cc4F)cc32)[C@@H](CN2[C@H](C)COC[C@H]2C)CN1 [Example 63, 1-{6-[(2,4-Difluorophenyl)methyl]-3,3-dimethyl-1H,2H,3H-pyrrolo[3,2-c]pyridin-1-yl}-2-[(2R,5R)-2-{[(3R,5R)-3,5-dimethylmorpholin-4-yl]methyl}-5-methylpiperazin-1-yl]ethan-1-one, dihydrochloride]	9.32	> 6.00
C[C@@H]1CN(CC(=O)N2CC(C)(C)c3ncc(Cc4ccc(F)cc4)cc32)[C@@H](CN2CCn3cnnc3C2)CN1 [Example 71, 1-{6-[(4-Fluorophenyl)methyl]-3,3-dimethyl-1H,2H,3H-pyrrolo[3,2-b]pyridin-1-yl}-2-[(2R,5R)-5-methyl-2-{5H, 6H, 7H, 8H-[1,2,4]triazolo[4,3-a]pyrazin-7-ylmethyl}piperazin-1-yl]ethan-1-one dihydrochloride]	7.01	> 6.00
CCCC(F)(F)c1cc2c(cn1)C(C)(C)CN2C(=O)CN1C[C@@H](C)NC[C@@H]1CN1[C@H](C)CN(C(C)=O)C[C@@H]1C [Example 93, 2-[(2R,5R)-2-{[(2R,6S)-4-Acetyl-2,6-dimethylpiperazin-1-yl]methyl}-5-methylpiperazin-1-yl]-1-[6-(1,1-difluorobutyl)-3,3-dimethyl-1H,2H,3H-pyrrolo[3,2-c]pyridin-1-yl]ethan-1-one dihydrochloride]	8.15	> 6.00
C[C@@H]1CN(CC(=O)N2CC(C)(C)c3c2cc(Cc2ccc(F)cc2)c[n+]3[O-])[C@@H](CN2[C@H](C)COC[C@H]2C)CN1 [Example 121, 1-{2-[(2R,5R)-2-{[(3R,5R)-3,5-Dimethylmorpholin-4-yl]methyl}-5-methylpiperazin-1-yl]acetyl}-6-[(4-fluorophenyl)methyl]-3,3-dimethyl-1H,2H,3H-pyrrolo[3,2-b]-pyridin-4-oxide dihydrochloride]	9.43	> 6.00

Second part, the compound after the results:

pEC50 [1]	pEC50 [2]	SMILES
8.68	> 6.00	CC1CS(=O)(=O)CCN1C[C@H]1CN[C@H](C)CN1CC(=O)N1CC(C)(C)c2ncc(Cc3ccc(F)cc3)cc21 (stereo partly drawn) [Example 9, 4-{[(2R,5R)-1-(2-{6-[(4-Fluorophenyl)methyl]-3,3-dimethyl-1H,2H,3H-pyrrolo[3,2-b]pyridin-1-yl}-2-oxoethyl)-5-methylpiperazin-2-yl]methyl}-3-methyl-1λ^6,4-thiomorpholine-1,1-dione dihydrochloride]
8.42	> 6.00	C[C@@H]1CN(CC(=O)N2CC(C)(C)c3ncc(Cc4ccc(F)cc4)cc32)[C@@H](CN2CCC(O)CC2)CN1 [Example 23, 1-{6-[(4-Fluorophenyl)methyl]-3,3-dimethyl-1H,2H,3H-pyrrolo[3,2-b]pyridin-1-yl}-2-[(2R,5R)-2-[(4-hydroxypiperidin-1-yl)methyl]-5-methylpiperazin-1-yl]ethan-1-one dihydrochloride]
8.51	> 6.00	C[C@@H]1CN(CC(=O)N2CC(C)(C)c3ncc(Cc4ccc(F)cc4)cc32)[C@@H](CN2CCOCC(F)(F)C2)CN1 [Example 28, 2-[(2R,5R)-2-[(6,6-Difluoro-1,4-oxazepan-4-yl)methyl]-5-methylpiperazin-1-yl]-1-{6-[(4-fluorophenyl)methyl]-3,3-dimethyl-1H,2H,3H-pyrrolo[3,2-b]pyridin-1-yl}ethan-1-one dihydrochloride]
7.92	> 6.00	C[C@@H]1CN(CC(=O)N2CC(C)(C)c3ncc(Cc4ccc(F)cc4)cc32)[C@@H](CN2CCC[C@H]2C(F)(F)F)CN1 [Example 36, 1-{6-[(4-Fluorophenyl)methyl]-3,3-dimethyl-1H,2H,3H-pyrrolo[3,2-b]pyridin-1-yl}-2-[(2R,5R)-5-methyl-2-{[(2S)-2-(trifluoromethyl)pyrrolidin-1-yl]methyl}piperazin-1-yl]ethan-1-one]
8.55	> 6.00	C[C@@H]1CN(CC(=O)N2CC(C)(C)c3ncc(Cc4ccc(F)cc4)cc32)[C@@H](CN2[C@H](CO)COC[C@H]2C)CN1 [Example 37, 1-{6-[(4-Fluorophenyl)methyl]-3,3-dimethyl-1H,2H,3H-pyrrolo[3,2-b]pyridin-1-yl}-2-[(2R,5R)-2-{[(3R,5R)-3-(hydroxymethyl)-5-methylmorpholin-4-yl]methyl}-5-methylpiperazin-1-yl]ethan-1-one, dihydrochloride]
7.54	> 6.00	CCCC(O)c1cc2c(cn1)C(C)(C)CN2C(=O)CN1C[C@@H](C)NC[C@@H]1CN1[C@H](C)COC[C@H]1C (stereo partly drawn) [Example 90, 2-[(2R,5R)-2-{[(3R,5R)-3,5-Dimethylmorpholin-4-yl]methyl}-5-methylpiperazin-1-yl]-1-[6-(1-hydroxybutyl)-3,3-dimethyl-1H,2H,3H-pyrrolo[3,2-c]pyridin-1-yl]ethan-1-one dihydrochloride]
9.49	> 6.00	C[C@@H]1CN(CC(=O)N2CC(C)(C)c3ncc(Cc4ccc(F)cc4)cc32)[C@@H](CN2C[C@H](CO)OC[C@H]2C)CN1 [Example 119, 1-{6-[(4-Fluorophenyl)methyl]-3,3-dimethyl-1H,2H,3H-pyrrolo[3,2-b]pyridin-1-yl}-2-[(2R,5R)-2-{[(2R,5R)-2-(hydroxymethyl)-5-methylmorpholin-4-yl]methyl}-5-methylpiperazin-1-yl]ethan-1-one, dihydrochloride]
9.52	> 6.00	C[C@@H]1CN(CC(=O)N2CC(C)(C)c3ncc(Cc4ccc(F)cc4F)cc32)[C@@H](CN2C[C@H](CO)OC[C@H]2C)CN1 [Example 120, 1-{6-[(2,4-Difluorophenyl)methyl]-3,3-dimethyl-1H,2H,3H-pyrrolo[3,2-b]pyridin-1-yl}-2-[(2R,5R)-2-{[(2R,5R)-2-(hydroxymethyl)-5-methylmorpholin-4-yl]methyl}-5-methylpiperazin-1-yl]ethan-1-one, dihydrochloride]

Reference: US9980973B2, “Bicyclic heterocycle compounds and their uses in therapy” (ASTEX THERAPEUTICS LIMITED, priority 2012, dated 2018)
